# In patent publication US20080200454A1, “CARBON-LINKED TETRAHYDRO-PYRAZOLO-PYRIDINE MODULATORS OF CATHEPSIN S” (priority 2007, published 2008):
# Target: Recombinant human cathepsin S (CatS) (Homo sapiens, UniProt P25774)
# Assay: Recombinant human cathepsin S (CatS) inhibition assay, fluorogenic substrate Z-Valine-Valine-Arginine-AMC;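 further: Baculovirus-expressed CatS in pH 5.0 sodium acetate buffer with DTT and NaCl, fluorescence read each minute over 20 min, inhibition derived from rate slope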
# Details: not given
# Recombinant human cathepsin S (CatS), sequence (P25774 115-331): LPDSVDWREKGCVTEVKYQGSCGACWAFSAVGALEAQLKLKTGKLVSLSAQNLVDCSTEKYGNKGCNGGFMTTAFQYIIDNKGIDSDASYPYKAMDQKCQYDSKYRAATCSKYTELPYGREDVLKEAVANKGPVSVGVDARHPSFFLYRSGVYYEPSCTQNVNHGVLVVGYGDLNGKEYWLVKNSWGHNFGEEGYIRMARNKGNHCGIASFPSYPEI
row,IC50 [nM],Compound
1,1990,"CS(=O)(=O)N1CCc2c(c(-c3ccc(Cl)c(C#Cc4cncc(CNCc5ccccc5)c4)c3)nn2CCCN2CCOCC2)C1 [Example 427, 1-[5-({2-Chloro-5-[5-(methylsulfonyl)-1-(3-morpholin-4-ylpropyl)-4,5,6,7-tetrahydro-1H-pyrazolo[4,3-c]pyridin-3-yl]phenyl}ethynyl)pyridin-3-yl]-N-(phenylmethyl)methanamine]"
2,30,"NC(=O)N1CCc2c(c(-c3ccc(Cl)c(C#Cc4ccc(Cl)c(C(=O)NCC5CCCNC5)c4)c3)nn2CCCN2CCSCC2)C1 (stereo not drawn) [Example 583, 3-[4-Chloro-3-({4-chloro-3-[(piperidin-3-ylmethyl)carbamoyl]phenyl}ethynyl)phenyl]-1-(3-thiomorpholin-4-ylpropyl)-1,4,6,7-tetrahydro-5H-pyrazolo[4,3-c]pyridine-5-carboxamide]"
3,7050,"CS(=O)(=O)N1CCc2c(c(-c3ccc(Cl)c(C#CCNS(=O)(=O)c4ccccc4)c3)nn2CCCN2CCOCC2)C1 [Example 54, N-(3-{2-Chloro-5-[5-methanesulfonyl-1-(3-morpholin-4-yl-propyl)-4,5,6,7-tetrahydro-1H-pyrazolo[4,3-c]pyridin-3-yl]-phenyl]-prop-2-ynyl)-benzenesulfonamide]"
4,150,"C[C@@H]1COCCN1CCCn1nc(-c2ccc(Cl)c(C#Cc3ccc(CNCc4ccc(Cl)cc4)cc3)c2)c2c1CCN(C(=O)C(N)=O)C2 [Example 620, 2-(3-{4-Chloro-3-[(4-{[(4-chlorobenzyl)amino]methyl}phenyl)ethynyl]phenyl}-1-{3-[(3R)-3-methylmorpholin-4-yl]propyl}-1,4,6,7-tetrahydro-5H-pyrazolo[4,3-c]pyridin-5-yl)-2-oxoacetamide]"
5,170,"CC(C)(C)OC(=O)N1CCc2ccc(C#Cc3cc(-c4nn(CC(O)CN5CCC(C(N)=O)CC5)c5c4CN(S(C)(=O)=O)CC5)ccc3Cl)cc2C1 (stereo not drawn) [Example 373, 1,1-Dimethylethyl 7-({5-[1-{3-[4-(aminocarbonyl)piperidin-1-yl]-2-hydroxypropyl}-5-(methylsulfonyl)-4,5,6,7-tetrahydro-1H-pyrazolo[4,3-c]pyridin-3-yl]-2-chlorophenyl}ethynyl)-3,4-dihydroisoquinoline-2(1H)-carboxylate]"
6,5450,"CS(=O)(=O)N1CCc2c(c(-c3ccc(Cl)c(C#CCCCc4ccccc4)c3)nn2CCCN2CCOCC2)C1 [Example 43, 3-[4-Chloro-3-(5-phenyl-pent-1-ynyl)-phenyl]-5-methanesulfonyl-1-(3-morpholin-4-yl-propyl)-4,5,6,7-tetrahydro-1H-pyrazolo[4,3-c]pyridine]"
7,4510,"CS(=O)(=O)N1CCc2c(c(-c3ccc(Cl)c(C#CC4CCCCC4)c3)nn2C[C@@H](O)CN2CCC(C3CCNCC3)CC2)C1 [Example 472, (2S)-1-(4,4′-Bipiperidin-1-yl)-3-{3-[4-chloro-3-(cyclohexylethynyl)phenyl]-5-(methylsulfonyl)-4,5,6,7-tetrahydro-1H-pyrazolo[4,3-c]pyridin-1-yl}propan-2-ol]"
8,20000,"CS(=O)(=O)N1CCc2c(c(-c3ccc(Cl)c(C#Cc4ccc(Oc5ccc(I)cc5)cc4)c3)nn2CCCN2CCOCC2)C1 [Example 14, 3-{4-Chloro-3-[4-(4-iodo-phenoxy)-phenylethynyl]-phenyl}-5-methanesulfonyl-1-(3-morpholin-4-yl-propyl)-4,5,6,7-tetrahydro-1H-pyrazolo[4,3-c]pyridine]"
9,30,"NC(=O)N1CCc2c(c(-c3ccc(Cl)c(C#Cc4ccc(Cl)c(CNCc5ccccc5)c4)c3)nn2CCCN2CCSCC2)C1 [Example 291, 3-{4-Chloro-3-[(4-chloro-3-{[(phenylmethyl)amino]methyl}phenyl)ethynyl]phenyl}-1-(3-thiomorpholin-4-ylpropyl)-1,4,6,7-tetrahydro-5H-pyrazolo[4,3-c]pyridine-5-carboxamide]"
10,60,"NC(=O)N1CCc2c(c(-c3ccc(Cl)c(C#Cc4ccc(Cl)cc4)c3)nn2CCCN2CCOCC2)C1 [Example 144, 3-[4-Chloro-3-(4-chloro-phenylethynyl)-phenyl]-1-(3-morpholin-4-yl-propyl)-1,4,6,7-tetrahydro-pyrazolo[4,3-c]pyridine-5-carboxylic acid amide]"
11,40,"NC(=O)N1CCc2c(c(-c3ccc(Cl)c(C#Cc4ccc(Cl)c(CN5CCOCC5)c4)c3)nn2CCCN2CCCCC2)C1 [Example 602, 3-(4-Chloro-3-{[4-chloro-3-(morpholin-4-ylmethyl)phenyl]ethynyl}phenyl)-1-(3-piperidin-1-ylpropyl)-1,4,6,7-tetrahydro-5H-pyrazolo[4,3-c]pyridine-5-carboxamide]"
12,200,"C[C@@H]1COCCN1CCCn1nc(-c2ccc(Cl)c(C#Cc3ccc(CNCc4ccc(Cl)cc4)cc3)c2)c2c1CCN(S(C)(=O)=O)C2 [Example 536, 1-[4-({2-Chloro-5-[1-{3-[(3R)-3-methylmorpholin-4-yl]propyl}-5-(methylsulfonyl)-4,5,6,7-tetrahydro-1H-pyrazolo[4,3-c]pyridin-3-yl]phenyl}ethynyl)phenyl]-N-[(4-chlorophenyl)methyl]methanamine]"
13,8930,"COc1ccc(S(=O)(=O)NCCCc2cc(-c3nn(CCCN4CCOCC4)c4c3CN(S(C)(=O)=O)CC4)ccc2Cl)cc1 [Example 85, N-(3-{2-Chloro-5-[5-methanesulfonyl-1-(3-morpholin-4-yl-propyl)-4,5,6,7-tetrahydro-1H-pyrazolo[4,3-c]pyridin-3-yl]-phenyl}-propyl)-4-methoxy-benzenesulfonamide]"

# Same assay, conditions: CatS IC50
row,Compound,IC50 [nM]
1,"C[C@H]1COCCN1CCCn1nc(-c2ccc(Cl)c(C#Cc3ccc(Cl)c(CN4CCOCC4)c3)c2)c2c1CCN(C(=O)C(N)=O)C2 [Example 588, 2-[3-(4-Chloro-3-{[4-chloro-3-(morpholin-4-ylmethyl)phenyl]ethynyl}phenyl)-1-{3-[(3S)-3-methylmorpholin-4-yl]propyl}-1,4,6,7-tetrahydro-5H-pyrazolo[4,3-c]pyridin-5-yl]-2-oxoacetamide]",40
2,"Cc1cc(CNCc2ccc(C#Cc3cc(-c4nn(CCCN5CCOCC5)c5c4CN(S(C)(=O)=O)CC5)ccc3Cl)cc2)c(C(F)(F)F)o1 [Example 426, 1-[4-({2-Chloro-5-[5-(methylsulfonyl)-1-(3-morpholin-4-ylpropyl)-4,5,6,7-tetrahydro-1H-pyrazolo[4,3-c]pyridin-3-yl]phenyl}ethynyl)phenyl]-N-{[5-methyl-2-(trifluoromethyl)furan-3-yl]methyl}methanamine]",390
3,"C[C@H]1COCCN1CCCn1nc(-c2ccc(Cl)c(C#Cc3ccc(CO)cc3)c2)c2c1CCN(C(=O)C(N)=O)C2 [Example 618, 2-[3-(4-Chloro-3-{[4-(hydroxymethyl)phenyl]ethynyl}phenyl)-1-{3-[(3S)-3-methylmorpholin-4-yl]propyl}-1,4,6,7-tetrahydro-5H-pyrazolo[4,3-c]pyridin-5-yl]-2-oxoacetamide]",20
4,"CS(=O)(=O)N1CCc2c(c(-c3ccc(Cl)c(C#Cc4ccc5c(c4)CN[C@@H](C(N)=O)C5)c3)nn2CCCN2CCOCC2)C1 [Example 197, (3R)-7-({2-Chloro-5-[5-(methylsulfonyl)-1-(3-morpholin-4-ylpropyl)-4,5,6,7-tetrahydro-1H-pyrazolo[4,3-c]pyridin-3-yl]phenyl}ethynyl)-1,2,3,4-tetrahydroisoquinoline-3-carboxamide]",200
5,"CS(=O)(=O)N1CCc2c(c(-c3ccc(Cl)c(C#Cc4ccc5c(c4)CNCC5)c3)nn2CCCN2CCCCC2)C1 [Example 381, 7-({2-Chloro-5-[5-(methylsulfonyl)-1-(3-piperidin-1-ylpropyl)-4,5,6,7-tetrahydro-1H-pyrazolo[4,3-c]pyridin-3-yl]phenyl}ethynyl)-1,2,3,4-tetrahydroisoquinoline]",100
6,"NC(=O)N1CCc2c(c(-c3ccc(Cl)c(C#Cc4ccc(CNCc5ccc(Cl)cc5)cc4)c3)nn2CCCN2CCC3(CC2)OCCO3)C1 [Example 462, 3-(4-Chloro-3-{[4-({[(4-chlorophenyl)methyl]amino}methyl)phenyl]ethynyl}phenyl)-1-[3-(1,4-dioxa-8-azaspiro[4.5]dec-8-yl)propyl]-1,4,6,7-tetrahydro-5H-pyrazolo[4,3-c]pyridine-5-carboxamide]",50
7,"CS(=O)(=O)N1CCc2c(c(-c3ccc(Cl)c(C#Cc4ccccc4CN)c3)nn2CCCN2CCOCC2)C1 [Example 385, 1-[2-({2-Chloro-5-[5-(methylsulfonyl)-1-(3-morpholin-4-ylpropyl)-4,5,6,7-tetrahydro-1H-pyrazolo[4,3-c]pyridin-3-yl]phenyl}ethynyl)phenyl]methanamine]",2720
8,"CS(=O)(=O)c1ccc(CNCc2cccc(C#Cc3cc(-c4nn(CCCN5CCOCC5)c5c4CN(S(C)(=O)=O)CC5)ccc3Cl)c2)cc1 [Example 524, 1-[3-({2-Chloro-5-[5-(methylsulfonyl)-1-(3-morpholin-4-ylpropyl)-4,5,6,7-tetrahydro-1H-pyrazolo[4,3-c]pyridin-3-yl]phenyl}ethynyl)phenyl]-N-{[4-(methylsulfonyl)phenyl]methyl}methanamine]",530
9,"CS(=O)(=O)N1CCc2c(c(-c3ccc(Cl)c(C#Cc4cccc(CNCCO)c4)c3)nn2CCCN2CCOCC2)C1 [Example 506, 2-({[3-({2-Chloro-5-[5-(methylsulfonyl)-1-(3-morpholin-4-ylpropyl)-4,5,6,7-tetrahydro-1H-pyrazolo[4,3-c]pyridin-3-yl]phenyl}ethynyl)phenyl]methyl}amino)ethanol]",520
10,"CS(=O)(=O)N1CCc2c(c(-c3ccc(Cl)c(C#Cc4ccc(CNCc5ccc(Cl)cc5)cc4)c3)nn2CCCN2CCC(F)(F)CC2)C1 [Example 357, 1-{4-[(2-Chloro-5-{1-[3-(4,4-difluoropiperidin-1-yl)propyl]-5-(methylsulfonyl)-4,5,6,7-tetrahydro-1H-pyrazolo[4,3-c]pyridin-3-yl}phenyl)ethynyl]phenyl}-N-[(4-chlorophenyl)methyl]methanamine]",210
11,"CS(=O)(=O)N1CCc2c(c(-c3ccc(Cl)c(C#Cc4ccc(Cl)c(Cl)c4)c3)nn2CCCN2CCOCC2)C1 [Example 13, 3-[4-Chloro-3-(3,4-dichloro-phenylethynyl)-phenyl]-5-methanesulfonyl-1-(3-morpholin-4-yl-propyl)-4,5,6,7-tetrahydro-1H-pyrazolo[4,3-c]pyridine]",320
